Results as given in patent US20220056014A1, “PHENYLPYRROLIDINE COMPOUND AND USE THEREOF” (WUHAN HUMANWELL INNOVATIVE DRUG RESEARCH AND DEVELOPMENT …, priority 2018, published 2022).

Legend:
[1] = tested on: LPS-induced secretion of TNFα in human PBMCs; assay: LPS-induced secretion of TNFα in human PBMCs; type: cell-based; conditions: Homo sapiens, PBMC, 24 h, LPS 10 ng/ml
Summary of the method: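 PBMCs isolated by Lymphoprep density centrifugation were seeded at 5×10^4/well in RPMI1640 + 10% FBS and given compound, with 30 min pre-incubation, then stimulated with 10 ng/ml LPS (final). After 24 h, supernatant TNF-α was measured by ELISA kit.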

PDE4D = molecular target: T1, PDE4D (Homo sapiens, UniProt Q08499); assay: PDE4D enzyme activity assay (PDE-Glo Phosphodiesterase Assay Kit); type: biochemical
T1 construct: purchased Enzo Life Sciences BML-SE523-0020
Summary of the method: (§1)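 Recombinant human PDE4B (1 ng/μl working solution) or PDE4D (4 ng/μl working solution) preincubated 5 min at RT with compound, then reacted 20 min with cAMP (2 μM in added solution). PDE-Glo termination/detection and Kinase-Glo steps followed; luminescence read and IC50 fitted.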

PDE4B = molecular target: T2, PDE4B (Homo sapiens, UniProt Q07343); assay: PDE4B enzyme activity assay (PDE-Glo Phosphodiesterase Assay Kit); type: biochemical; conditions: for IC50 (PDE4D)/IC50 (PDE4B): selectivity ratio
T2 construct: purchased Enzo Life Sciences BML-SE522-0020
Summary of the method: as §1

[2] = Pharmacokinetic test of cynomolgus monkeys; type: in vivo; conditions: male, plasma; cynomolgus monkey, oral gavage 20 mg/kg
Description: In the rat pharmacokinetic test, 3 male SD rats (180-240 g) were fasted overnight, and orally administered with 10 mg/kg of compound to be tested. Blood was collected before the administration, and 15 min, 30 min, 1 h, 2 h, 4 h, 8 h, and 24 h hours after the administration. The blood sample was centrifuged at 8000 rpm for 6 min at 4° C., and the plasma was collected and stored at −20° C. The plasma collected at each time point was added and mixed with 3-5 times the amount of acetonitrile solution containing an internal standard, vortexed for 1 min, centrifuged at 13,000 rpm for 10 min at 4° C. The supernatant was taken and mixed with 3 times the amount of water, and an appropriate amount of the mixture was taken for LC-MS/MS analysis. The main pharmacokinetic parameters were analyzed with WinNonlin 7.0 software non-compartmental model.
In the mouse pharmacokinetic test, 9 male CD-1 mice (20-25 g) were fasted overnight, and orally administered with 10 mg/kg of the compound to be tested. Bloods of 3 mice were collected at each time point, and bloods of 9 mice were alternately collected in total. In the pharmacokinetic test in canine, 3 male beagle dogs (8-10 kg) were fasted overnight, and orally administered with 5 mg/kg of the compound to be test. In the pharmacokinetic test of cynomolgus monkeys, 3 male cynomolgus monkeys (4 to 6.5 kg) were fasted overnight, and orally administered 20 mg/kg of the compound to be test. The remaining processes are the same as those of the rat pharmacokinetic test.

T2 sequence (Q07343 whole entry): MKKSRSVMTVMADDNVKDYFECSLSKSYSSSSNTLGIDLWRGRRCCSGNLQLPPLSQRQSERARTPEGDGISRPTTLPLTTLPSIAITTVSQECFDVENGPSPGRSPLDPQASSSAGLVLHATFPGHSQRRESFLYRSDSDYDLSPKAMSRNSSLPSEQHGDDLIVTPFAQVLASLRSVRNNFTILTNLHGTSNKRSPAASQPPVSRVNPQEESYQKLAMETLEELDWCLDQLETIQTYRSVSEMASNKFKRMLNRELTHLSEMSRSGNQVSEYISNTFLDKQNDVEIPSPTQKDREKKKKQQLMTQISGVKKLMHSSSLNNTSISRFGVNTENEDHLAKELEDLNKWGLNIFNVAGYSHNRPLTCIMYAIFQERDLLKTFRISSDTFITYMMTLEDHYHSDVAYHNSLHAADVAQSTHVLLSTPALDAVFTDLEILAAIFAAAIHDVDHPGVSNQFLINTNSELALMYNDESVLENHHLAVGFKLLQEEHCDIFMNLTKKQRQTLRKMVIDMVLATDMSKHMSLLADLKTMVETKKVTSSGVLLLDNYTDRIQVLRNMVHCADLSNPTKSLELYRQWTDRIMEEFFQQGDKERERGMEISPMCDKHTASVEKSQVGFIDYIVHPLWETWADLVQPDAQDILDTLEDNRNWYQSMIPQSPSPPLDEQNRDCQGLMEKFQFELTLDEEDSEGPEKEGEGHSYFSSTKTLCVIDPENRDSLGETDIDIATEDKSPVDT
T1 sequence (Q08499 whole entry): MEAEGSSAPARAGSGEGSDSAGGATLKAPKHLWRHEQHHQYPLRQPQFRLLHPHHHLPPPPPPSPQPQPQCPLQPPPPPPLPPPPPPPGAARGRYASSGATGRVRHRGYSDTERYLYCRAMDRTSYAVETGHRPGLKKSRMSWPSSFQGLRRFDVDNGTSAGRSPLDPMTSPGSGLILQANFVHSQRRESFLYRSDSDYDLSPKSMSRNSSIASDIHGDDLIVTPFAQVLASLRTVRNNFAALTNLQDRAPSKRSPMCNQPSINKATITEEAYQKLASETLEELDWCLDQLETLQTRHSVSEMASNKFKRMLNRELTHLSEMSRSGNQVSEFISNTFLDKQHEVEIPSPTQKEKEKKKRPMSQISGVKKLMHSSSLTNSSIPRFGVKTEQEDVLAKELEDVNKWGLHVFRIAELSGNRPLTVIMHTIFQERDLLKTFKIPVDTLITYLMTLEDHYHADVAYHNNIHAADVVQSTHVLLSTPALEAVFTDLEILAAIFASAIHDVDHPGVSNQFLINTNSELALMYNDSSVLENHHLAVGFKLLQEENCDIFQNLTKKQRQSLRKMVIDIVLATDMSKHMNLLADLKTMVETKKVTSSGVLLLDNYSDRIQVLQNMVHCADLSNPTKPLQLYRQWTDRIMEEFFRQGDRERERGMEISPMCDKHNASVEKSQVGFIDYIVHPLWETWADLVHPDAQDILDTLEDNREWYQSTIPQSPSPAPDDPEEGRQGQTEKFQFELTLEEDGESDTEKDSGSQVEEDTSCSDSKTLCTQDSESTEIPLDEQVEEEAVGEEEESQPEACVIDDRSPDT

Row | IC50 (PDE4D) | IC50 (PDE4B) | IC50 (PDE4D)/IC50 (PDE4B) (PDE4B) | AUC(0-t) [2] | Cmax [2] | Tmax [2] | SMILES | IC50 [1]
1 | 1.12 nM | 0.93 nM | 1.20 |  |  |  | COc1ccc([C@@H]2CN(C(=O)[C@@H](O)CO)C[C@@]2(C)[C@@H](C)O)cc1OC1CN(c2ncc(C)cc2F)C1 [Compound 004, (S)-1-((3S,4S)-4-(3-((1-(3-fluoro-5-methylpyridin-2-yl)azetidin-3-yl)oxy)-4-methoxyphenyl)-3-((R)-1-hydroxyethyl)-3-methylpyrrolidin-1-yl)-2,3-dihydroxypropan-1-one] | 5.13 nM
2 | 3.94 nM | 1.17 nM | 3.37 | 44.4 µg·h/mL | 13.8 µg/mL | 1.75 h | COc1ccc([C@@H]2CN(C(=O)[C@@H](O)CO)C[C@@]2(C)[C@@H](C)O)cc1OC1CN(c2ccc(C)c(C)n2)C1 [Compound 007, (S)-1-((3S,4S)-4-(3-((1-(5,6-dimethylpyridin-2-yl)azetidin-3-yl)oxy)-4-methoxyphenyl)-3-((R)-1-hydroxyethyl)-3-methylpyrrolidin-1-yl)-2,3-dihydroxypropan-1-one] | 2.24 nM
3 | 1.07 nM | 2.31 nM | 0.46 |  |  |  | COc1ccc([C@@H]2CN(C(=O)[C@@H](O)CO)C[C@@]2(C)[C@@H](C)O)cc1OC1CN(c2ccc(Cl)c(C)n2)C1 [Compound 011, (S)-1-((3S,4S)-4-(3-((1-(5-chloro-6-methylpyridin-2-yl)azetidin-3-yl)oxy)-4-methoxyphenyl)-3-((R)-1-hydroxyethyl)-3-methylpyrrolidin-1-yl)-2,3-dihydroxypropan-1-one] | 1.55 nM
4 | 0.41 nM | 2.1 nM | 0.20 | 3.64 µg·h/mL | 0.565 µg/mL | 1.5 h | COc1ccc([C@@H]2CN(C(=O)[C@@H](O)CO)C[C@@]2(C)[C@@H](C)O)cc1OC1CN(c2ccc(C)cn2)C1 [Positive control compound, reference compound] | 3.32 nM
